Tests used:
[1] = target: LDHA (Homo sapiens, UniProt P00338); assay: Coupled diaphorase assay, LDHA; format: biochemical; details: 4-7 nM LDHA, 500 μM lactate, 150 μM NAD+, lactate to pyruvate direction
Text: (§1) The inhibitory properties of the compounds were investigated using a coupled enzyme assay that links the lactate dehydrogenase (LDH) reaction to the production of fluorescent resorufin by diaphorase.
(§2) Human lactate dehydrogenases (LDH) catalyze the reversible interconversion between pyruvate and lactate. LDH is capable of catalyzing both the forward (pyruvate to lactate) and the reverse (lactate to pyruvate) reaction, using either NADH or NAD+ as cofactor. The reaction proceeds in either direction dependent on various factors, such as substrate availability, the presence of necessary cofactors, temperature and pH. Different isoforms (LDH A, B, and C) of the enzyme favor different reaction directions—LDHA prefers the conversion from pyruvate to lactate, whereas LDHB preferentially oxidizes lactate to pyruvate.
(§3) The coupled assay relies on the oxidation of NAD^+ to NADH throughout the conversion of lactate to pyruvate by LDH (isoforms A, B and C). The produced NADH serves as cofactor in the diaphorase reaction, which reduces non-fluorescent resazurin to fluorescent resorufin. Therefore, the assay indirectly monitors the rate of pyruvate production. Although the consumption of NADH can be directly monitored due to the intrinsic fluorescence of the molecule (excitation: 340 nm, emission: 460 nm) there are problems linked to the direct readout method. […] Shifting the assay to longer wavelengths by coupling the LDH reaction to the conversion of resazurin to fluorescent resorufin by diaphorase reduces this compound interference. The assay direction was thus chosen to provide a robust and reliable assay.
(§4) Compounds were tested in duplicates using 2-fold, 3-fold or 4-fold serial dilutions including 11 individual concentrations, starting from 5000 μM to 30 μM. […] The controls allowed for the calculation of the percentage inhibition for each data point. […] Enzyme solution leading to final concentrations of 4-7 nM LDHA or 6 nM LDHB, as well as 0.2 U/mI diaphorase in the reaction well was dispensed into 384-well plates (Greiner bio-one) using a CyBi®-SELMA robotic pipettor. Compound dilutions and the enzyme were incubated for at least 20 min at room temperature. […] The reaction was quenched by the addition of a stop solution (final concentrations: 20 mM EDTA, 400 mM NaCl, 40 mM pyruvate). Fluorescence was read out after 5 min of incubation at an excitation wavelength of 560 nm and an emission wavelength of 590 nm on a Perkin Elmer Victor X plate reader.
(§5) Therefore, an enzyme solution only containing diaphorase was incubated with the compound dilution series.
(§6) Dose response curves were fitted in KaleidaGraph (www.synergy.com) or Dotmatics software package (www.dotmatics.com) using a standard 4-parameter fit (Levenberg-Marquardt fitting procedure), resulting in IC50 values for the test compounds.

[2] = target: LDHB (Homo sapiens, UniProt P07195); assay: Coupled diaphorase assay, LDHB; format: biochemical; details: 6 nM LDHB, 500 μM lactate, 150 μM NAD+, lactate to pyruvate direction
Text: as §1, §2, §3, §4, §5, §6

[3] = test system: MIA PaCa-2 human pancreatic cells; details: MIA PaCa-2 cells; cited from earlier work
[4] = in vivo; cited from earlier work
[5] = test system: mice with temporal-lobe epilepsy; details: directly injected into the hippocampus; cited from earlier work
[6] = test system: LDH; details: in vitro; cited from earlier work

Chain of LDHB (P07195 whole entry): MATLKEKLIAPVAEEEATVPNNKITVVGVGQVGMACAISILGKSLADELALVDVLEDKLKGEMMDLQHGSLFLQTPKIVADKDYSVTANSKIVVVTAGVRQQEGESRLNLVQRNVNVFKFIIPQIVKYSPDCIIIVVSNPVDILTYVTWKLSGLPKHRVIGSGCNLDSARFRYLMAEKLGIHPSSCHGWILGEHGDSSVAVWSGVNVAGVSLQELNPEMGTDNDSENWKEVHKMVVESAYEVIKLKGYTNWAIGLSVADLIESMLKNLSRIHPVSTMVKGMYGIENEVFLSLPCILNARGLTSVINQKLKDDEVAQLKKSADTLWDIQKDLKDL

IC50 [1] | IC50 [2] | Structure (SMILES) | also measured
1 to 100 µM | > 200 µM | CCOC(=O)OC1=C(Sc2ccccc2Cl)C(=O)NC(c2ccc(Br)cc2)(c2ccsc2)C1 (stereo not drawn) [Example 1, 2-(4-bromophenyl)-5-[(2-chlorophenyl)sulfanyl]-6-oxo-2-(thiophen-3-yl)-1,2,3,6-tetrahydropyridin-4-yl ethyl carbonate] | 
> 200 µM |  | CC(C)COC(=O)OC1=C(Sc2ccccc2Cl)C(=O)NC(c2ccc(N3CCOCC3)cc2)(c2ccsc2)C1 (stereo not drawn) [Example 2, 5-((2-chlorophenyl)thio)-2-(4-morpholinophenyl)-6-oxo-2-(thiophen-3-yl)-1,2,3,6-tetrahydropyridin-4-yl isobutyl carbonate] | 
1 to 100 µM |  | COC(=O)OC1=C(Sc2ccccc2Cl)C(=O)NC(c2ccc(N3CCOCC3)cc2)(c2ccsc2)C1 (stereo not drawn) [Example 5, 5-((2-chlorophenyl)thio)-2-(4-morpholinophenyl)-6-oxo-2-(thiophen-3-yl)-1,2,3,6-tetrahydropyridin-4-yl methyl carbonate] | 
> 200 µM | > 200 µM | COC(=O)OC1=C(Sc2ccccc2Cl)C(=O)NC(c2ccsc2)(c2ccc(Br)cn2)C1 (stereo not drawn) [Example 6, 5′-bromo-5-((2-chlorophenyl)thio)-6-oxo-2-(thiophen-3-yl)-1,2,3,6-tetrahydro-[2,2′-bipyridin]-4-yl methyl carbonate] | 

Continued, compound first:

Structure (SMILES) | IC50 [1] | IC50 [2] | also measured
CCOC(=O)OC1=C(Sc2ccccc2Cl)C(=O)NC(c2ccsc2)(c2cccc(Br)n2)C1 (stereo not drawn) [Example 3, 6′-bromo-5-((2-chlorophenyl)thio)-6-oxo-2-(thiophen-3-yl)-1,2,3,6-tetrahydro-[2,2′-bipyridin]-4-yl ethyl carbonate] | > 200 µM | > 200 µM | 
COCCOC(=O)OC1=C(Sc2ccccc2Cl)C(=O)NC(c2ccsc2)(c2cccc(OCC3CCCC3)n2)C1 (stereo not drawn) [Example 4, 5-((2-chlorophenyl)thio)-6′-(cyclopentylmethoxy)-6-oxo-2-(thiophen-3-yl)-1,2,3,6-tetrahydro-[2,2′-bipyridin]-4-yl (2-methoxyethyl) carbonate] | > 200 µM | > 200 µM | 
CCCCCCCCCC(=O)OC1=C(Sc2ccccc2Cl)C(=O)NC(c2ccsc2)(c2cccc(OC3COC3)n2)C1 (stereo not drawn) [Example 7, 5-((2-chlorophenyl)thio)-6′-(oxetan-3-yloxy)-6-oxo-2-(thiophen-3-yl)-1,2,3,6-tetrahydro-[2,2′-bipyridin]-4-yl decanoate] | 1 to 100 µM | 100 to 200 µM | 
O=C1CC(c2ccsc2)(c2cccc(OCC3CCCC3)n2)NC(=O)C1Sc1ccccc1Cl (stereo not drawn) [Example 9, 3-((2-chlorophenyl)thio)-6-(6-(cyclopentylmethoxy)pyridin-2-yl)-6-(thiophen-3-yl)piperidine-2,4-dione, reference compound] | 1 to 100 µM | 1 to 100 µM | 
O=C1CC(c2ccc(N3CCOCC3)cc2)(c2ccsc2)NC(=O)C1Sc1ccccc1Cl (stereo not drawn) [GNE-140] |  |  | time of continuous LDHA inhibition until cell death [3]: ≥ 2 days; clearance [4]: rapid clearance
NC(=O)C(=O)O [Oxamate] |  |  | effect on seizures [5]: suppress their seizures; concentration range inhibiting LDH enzyme activity [6]: mM range

Reference: US20200102293A1, “LDHA ACTIVITY INHIBITORS” (ARCTIC PHARMA AS, priority 2017, published 2020)
